Assay results as given in patent publication US7851474B2, “Dipiperazinyl ketones and related analogues” (Neurogen Corporation, priority 2005, dated 2010).
Read-outs that look alike come from different tables or passages of the source. Values belong to the compound of their own block, whether it stands above or below them.

Molecular target: T1, chimeric human H3 receptor (Homo sapiens, UniProt Q9Y5N1, E19D)
T1 construct: made in house; host or cells: Sf9 insect cells (baculovirus infection); P2 membrane preparation
Experiment: Chimeric human H3 receptor GTP binding assay (agonist-stimulated GTP-gamma35S binding, Example 7)
Format: biochemical
Settings: read-out: Ki
Summary of the method: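 IC50 values come from non-linear regression of dose-response curves of filter-bound GTP-gamma^35S, counted by scintillation. Membranes were from infected Sf9 cells carrying receptor plus G-protein subunits, 35 μg/tube, with 10 μM GDP present.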

[1] = Table II, "*" in Ki, assay of Example 7
[2] = assay of Example 7, "*" in Ki of Table II
[3] = Table II, assay of Example 7, "*" in Ki
[4] = "*" in Ki of Table II, assay of Example 7
[5] = assay of Example 7, symbol * in column headed Ki of Table II
[6] = Table II "Ki", symbol "*": Ki in the assay of Example 7

T1 sequence (Q9Y5N1 with tags, fused parts or gaps E19D): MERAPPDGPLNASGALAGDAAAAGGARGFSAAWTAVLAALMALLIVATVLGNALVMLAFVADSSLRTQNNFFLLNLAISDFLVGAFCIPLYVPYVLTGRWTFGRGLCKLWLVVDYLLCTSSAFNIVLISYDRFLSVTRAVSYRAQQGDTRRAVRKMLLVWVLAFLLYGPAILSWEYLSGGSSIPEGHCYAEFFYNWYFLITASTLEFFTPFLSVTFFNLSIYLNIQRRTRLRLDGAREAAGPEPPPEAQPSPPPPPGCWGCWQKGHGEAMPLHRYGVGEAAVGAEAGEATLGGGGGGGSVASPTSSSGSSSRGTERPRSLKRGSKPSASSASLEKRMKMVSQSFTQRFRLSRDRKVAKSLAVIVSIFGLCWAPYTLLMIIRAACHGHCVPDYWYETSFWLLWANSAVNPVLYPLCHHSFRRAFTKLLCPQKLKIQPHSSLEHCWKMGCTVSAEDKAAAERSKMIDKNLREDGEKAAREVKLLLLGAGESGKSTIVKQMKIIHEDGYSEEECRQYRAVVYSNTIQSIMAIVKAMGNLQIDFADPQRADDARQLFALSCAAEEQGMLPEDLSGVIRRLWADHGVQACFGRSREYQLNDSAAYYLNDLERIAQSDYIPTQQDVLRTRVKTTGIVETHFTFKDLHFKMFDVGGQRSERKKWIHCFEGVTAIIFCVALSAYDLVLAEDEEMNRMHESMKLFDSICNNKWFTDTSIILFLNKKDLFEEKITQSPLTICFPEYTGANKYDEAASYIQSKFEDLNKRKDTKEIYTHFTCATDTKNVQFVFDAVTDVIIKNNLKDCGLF

Ki [1]: < 1000 nM
Compound: CCC1CCCCN1C(=O)c1cccc(N2CCN(CC(=O)N3CCN(C4CCC4)CC3)CC2)c1 (stereo not drawn) [Compound 638, 1-cyclobutyl-4-[(4-{3-[(2-ethylpiperidin-1-yl)carbonyl]phenyl}piperazin-1-yl)acetyl]piperazine]

Ki [1]: < 1000 nM
Compound: CC(C)c1cccc(-c2ccc(N3CCN(CC(=O)N4CCN(C5CCC5)CC4)CC3)cc2)c1 [Compound 756, 1-cyclobutyl-4-{[4-(3′-isopropylbiphenyl-4-yl)piperazin-1-yl]acetyl}piperazine]

Ki [2]: < 1000 nM
Compound: O=C(NC1CCN(CC(=O)N2CCN(C3CCC3)CC2)CC1)C1CC2CCC1C2 (stereo not drawn) [Compound 1226, N-{1-[2-(4-cyclobutylpiperazin-1-yl)-2-oxoethyl]piperidin-4-yl}bicyclo[2.2.1]heptane-2-carboxamide]

Ki [3]: < 1000 nM
Compound: COc1ccccc1-c1cnc(N2CCN(CC(=O)N3CCN(C4CCC4)CC3)CC2)cn1 [Compound 951, 2-{4-[2-(4-cyclobutylpiperazin-1-yl)-2-oxoethyl]piperazin-1-yl}-5-(2-methoxyphenyl)pyrazine]

Ki [4]: < 1000 nM
Compound: Cc1ccccc1OC(C)C(=O)N1CCN(CC(=O)N2CCN(C3CCC3)CC2)CC1 (stereo not drawn) [Compound 573, 1-cyclobutyl-4-({4-[2-(2-methylphenoxy)propanoyl]piperazin-1-yl}acetyl)piperazine]

Ki [5]: < 1000 nM
Compound: O=C(CN1CCC(N2CCCCC2)CC1)N1CCN(C2CCCCC2)CC1 [Compound 437, 1′-[2-(4-cyclohexylpiperazin-1-yl)-2-oxoethyl]-1,4′-bipiperidine]

Ki [4]: < 1000 nM
Compound: CC1CN(c2ccc(C(F)(F)F)cn2)CCN1CC(=O)N1CCN(C(C)(C)C)CC1 (stereo not drawn) [Compound 451, 1-[2-(4-tert-butylpiperazin-1-yl)-2-oxoethyl]-2-methyl-4-[5-(trifluoromethyl)pyridin-2-yl]piperazine]

Ki [5]: < 1000 nM
Compound: CCC(=O)c1ccc(N2CCN(CC(=O)N3CCN(C4CCC4)CC3)CC2)cc1 [Compound 312, 1-(4-{4-[2-(4-cyclobutylpiperazin-1-yl)-2-oxoethyl]piperazin-1-yl}phenyl)propan-1-one]

Ki [3]: < 1000 nM
Compound: O=C(CN1CCN(c2cccc(C(=O)N3CCSCC3)c2)CC1)N1CCN(C2CCC2)CC1 [Compound 1091, 4-(3-{4-[2-(4-cyclobutylpiperazin-1-yl)-2-oxoethyl]piperazin-1-yl}benzoyl) thiomorpholine]

Ki [3]: < 1000 nM
Compound: CCN(C(=O)c1ccc(N2CCN(CC(=O)N3CCN(C4CCC4)CC3)CC2)cc1)C(C)C [Compound 1126, 4-{4-[2-(4-cyclobutylpiperazin-1-yl)-2-oxoethyl]piperazin-1-yl}-N-ethyl-N-isopropylbenzamide]

Ki [6]: < 1000 nM
Compound: O=C(CN1CCN(c2cnc(-c3ccccc3Cl)cn2)CC1)N1CCN(C2CCC2)CC1 [Compound 898, 2-(2-chlorophenyl)-5-{4-[2-(4-cyclobutylpiperazin-1-yl)-2-oxoethyl]piperazin-1-yl}pyrazine]

Ki [3]: < 1000 nM
Compound: COc1cccc(OC)c1-c1ccc(N2CCN(CC(=O)N3CCN(C4CCC4)CC3)CC2)nn1 [Compound 1057, 3-{4-[2-(4-cyclobutylpiperazin-1-yl)-2-oxoethyl]piperazin-1-yl}-6-(2,6-dimethoxyphenyl) pyridazine]

Ki [2]: < 1000 nM
Compound: CCOC(=O)c1cccc(-c2ccc(N3CCN(CC(=O)N4CCN(C5CCC5)CC4)CC3)cc2)c1 [Compound 1200, ethyl 4′-{4-[2-(4-cyclobutylpiperazin-1-yl)-2-oxoethyl]piperazin-1-yl}biphenyl-3-carboxylate]

Ki [5]: < 1000 nM
Compound: CC1CN(c2ccc(C(F)(F)F)cn2)CCN1CC(=O)N1CCN(C2CCC2)CC1 (stereo not drawn) [Compound 427, 1-[2-(4-cyclobutylpiperazin-1-yl)-2-oxoethyl]-2-methyl-4-[5-(trifluoromethyl)pyridin-2-yl]piperazine]

Ki [6]: < 1000 nM
Compound: O=C1CCc2cc(N3CCC(C(=O)OCC(=O)N4CCN(C5CCC5)CC4)CC3)ccc21 [Compound 905, 2-(4-cyclobutylpiperazin-1-yl)-2-oxoethyl 1-(1-oxo-2,3-dihydro-1H-inden-5-yl)piperidine-4-carboxylate]
